# Source: article PMC8920107 (ADMET & DMPK, 2020)
# Several values for one entry are separate records, joined by “and”; a condition that tells them apart may be missing. Equal entries are not always repeated. Where two headings read alike, the source gives them in different places.
# Experiments:
# [1] = design: method as in PMID 11472245; settings: calibration set of compounds, predefined values; cited from earlier work
# [2] = system: α-1-acid-glycoprotein (AGP); assay: Glycoprotein binding by biomimetic HPLC on Chiralpak AGP column; settings: for % AGP bound: standard 6 min IPA gradient up to 35 %, pH 7.4, racemate; for calculated % binding, AGP 5 % IPA: isocratic 5 % IPA; for calculated % binding, AGP 5 % IPA / calculated % binding, AGP 8 % IPA / calculated % binding, AGP 15 % IPA: 1.2 mL/min; for calculated % binding, AGP 8 % IPA: isocratic 8 % IPA; for calculated % binding, AGP 15 % IPA: isocratic 15 % IPA
# Description: (§1) The protein binding measurements were carried out on Chiralpak HSA and Chiralpak AGP columns with the dimensions of 3 x 50 mm with 5 um particle size stationary phase (Chiril Technologies Europe, France). The mobile phase was 50 mM ammonium acetate adjusted to pH 7.4 with a flow rate of 1.2 mL/min. […] The cycle time was 6 min with an additional 1 min re-equilibration time.
# (§2) The cycle time was 8 min plus an additional 1 min re-equilibration time.
# [3] = cited from earlier work
# [4] = Estimated lung tissue binding from biomimetic HPLC data (model equation); settings: standard 6 min protocol data
# Excerpt: (§3) Thus, the regression coefficients in linear regression analysis are meaningful and reflect to the physiological proportion of the albumin and phospholipids in the body. […] They are based on the calibrated retention times obtained on C-18, IAM, Chiralpak HSA and Chiralpak AGP columns.
# [5] = Estimated total plasma protein binding from biomimetic HPLC data (model equation); settings: from % HSA, % AGP and lipophilicity, standard 6 min protocol; for fraction unbound: human, read-out: Estimated % plasma protein binding (PPB) (converted)
# Excerpt: as §3
# AGP [6] = settings: cited from earlier work
# [7] = Estimated brain tissue binding and brain to blood ratio from biomimetic HPLC data (model equations); settings: standard 6 min protocol data; for %BTB: brain tissue binding; for Kp at 0.1 h: read-out: Brain to plasma
# Excerpt: as §3
# [8] = both in animals and in human; cited from earlier work
# [9] = Human plasma protein binding by rapid equilibrium dialysis (RED); assay type: in vitro ADME; settings: 100 % pooled human plasma, pH 7.4, 37 °C
# Description: The test compounds were prepared in 100 % pooled human plasma. The measurement was performed using equilibrium dialysis with the two compartments separated by a semi-permeable membrane. The plasma solution was added to one side of the membrane while buffer (pH 7.4) was added to the other side. The system was allowed to reach equilibrium at 37 °C. Compound concentration on both sides of the membrane was measured by LC-MS/MS, and the fraction of unbound compound calculated. Calibration standards were prepared in plasma and buffer. Test compound incubations were performed in triplicate. A control compound was included in each experiment. The solutions for each batch of compounds were combined into two groups (protein-free and protein-containing). Cassette analysed by LC-MS/MS using two sets of calibration standards for protein-free solutions (7 points) and protein-containing solutions (7 points). The experiments were carried out at Cyprotex Discovery Ltd (UK) and repeated at Sygnature Discovery Ltd (UK) laboratories using their generic LC/MS method. The unbound fraction (fu) is calculated from the concentration of the test compound in the protein-containing side Cp and the protein-free side Cf based on the formula: […]
# [10] = Estimated volume of distribution, unbound volume of distribution and drug efficiency from biomimetic HPLC data; settings: standard 6 min protocol data
# Excerpt: as §3
# [11] = target: human serum albumin (HSA) (Homo sapiens, UniProt P02768); assay: Albumin binding by biomimetic HPLC on Chiralpak HSA column; settings: for fraction unbound: human, Chiralpak HSA HPLC column (immobilised human serum albumin), pH 7.4; for % HSA bound: standard 6 min IPA gradient up to 35 %, pH 7.4, racemate; for log k (HSA): standard 6 min IPA gradient, racemate; for calculated % binding, HSA 5 % IPA: isocratic 5 % IPA, partial calibration set; for calculated % binding, HSA 15 % IPA: isocratic 15 % IPA
# Sequence of human serum albumin (HSA) (P02768 25-609): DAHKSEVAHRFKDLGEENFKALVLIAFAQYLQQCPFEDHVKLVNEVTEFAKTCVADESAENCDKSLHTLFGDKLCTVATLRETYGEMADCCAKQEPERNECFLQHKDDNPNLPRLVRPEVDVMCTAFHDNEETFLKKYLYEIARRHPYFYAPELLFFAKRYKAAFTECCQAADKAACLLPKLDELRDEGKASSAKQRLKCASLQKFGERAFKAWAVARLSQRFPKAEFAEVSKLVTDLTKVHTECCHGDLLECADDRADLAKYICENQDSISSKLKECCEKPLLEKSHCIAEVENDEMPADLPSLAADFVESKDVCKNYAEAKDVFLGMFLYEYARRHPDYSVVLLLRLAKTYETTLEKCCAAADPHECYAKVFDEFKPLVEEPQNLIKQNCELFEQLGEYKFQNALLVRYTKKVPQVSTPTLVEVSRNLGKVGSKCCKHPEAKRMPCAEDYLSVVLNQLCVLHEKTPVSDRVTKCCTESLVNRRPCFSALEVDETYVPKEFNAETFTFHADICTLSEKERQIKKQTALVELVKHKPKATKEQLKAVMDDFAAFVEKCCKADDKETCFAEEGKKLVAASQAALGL
# Description: as §1, §2
# [12] = cited from earlier work; remark: listed apart in the source
# [13] = Phospholipid binding at pH 7.4 on Immobilized Artificial Membrane (IAM) HPLC column; assay type: physicochemical; settings: pH 7.4, standard 6 min protocol
# Description: The phospholipid-binding was measured using an IAM PC.DD2 column with dimensions of 100 x 4.6 mm (Regis Technologies Inc., Morton Grove, IL, USA). The gradient retention times of the compounds were measured using a 50 mM ammonium acetate starting mobile phase with the pH adjusted to 7.4. The mobile phase flow rate was 1.5 mL/min. […] The cycle time was 6 min plus an additional 1 min equilibration time was applied while the injector prepared for the next injection. The gradient retention times were calibrated with the acetophenone homologues for which the CHI IAM values have been established using isocratic measurements [26]. The Chromatographic Hydrophobicity Index on the IAM column [CHI(IAM)] approximates to the acetonitrile concentration in the mobile phase when the compound elutes. CHI(IAM) values above 45 indicate strong phospholipid binding. Repeating the retention time measurements provided the error only in the third digit of the minute (±0.005).
# AGP [14] = assay: Literature AGP binding by equilibrium dialysis
# HSA [15] = settings: cited from earlier work; for % HSA: calibration drugs, equilibrium dialysis literature % binding
# HSA [16] = system: HSA
# [17] = Phospholipidotic potential (CAD-likeness) from CHI values; settings: CHI (IAM) + (CHI at pH 10.5 – CHI at pH 7.4)
# [18] = Chromatographic Hydrophobicity Index (CHI) lipophilicity at three pHs, C-18 gradient HPLC; assay type: physicochemical
# Description: Gemini NX C-18(2) 5 um columns with dimensions of 3 x 50 mm (Phenomenex Ltd. Macclesfield, UK) were used for the determination of the Chromatographic Hydrophobicity Index (CHI) and the CHIlogD values. […] An acetonitrile linear gradient was used from 0 to 100 %. The acetonitrile concentration reached 100 % in 3.5 min. The 100 % acetonitrile mobile phase was maintained for an additional 1 min before it was returned to 0 % at 4.7 min. The cycle time of the gradient run was 6 min, with an additional equilibration time of 1 min before the next injection. The error in the retention time measurements is ±0.005 min in general after repeated injections.
# [19] = Estimated cell partition coefficient from IAM binding (model equation); settings: standard 6 min protocol data
# Excerpt: as §3
# [20] = calibration compounds, literature value, no reference given; cited from earlier work
# [21] = calibration drugs, equilibrium dialysis literature % binding
compound,measurement,setting,value
CC(=O)c1ccccc1 [Acetophenone],CHI at pH 2.6,[1],64.1
same,CHI at pH 7.4,[1],65.1
same,CHI at pH 10.5,[1],64.1
c1ccc2[nH]cnc2c1 [Benzimidazole],CHI at pH 2.6,[1],6.3
same,CHI at pH 7.4,[1],34.3
same,CHI at pH 10.5,[1],30.6
CCCC(=O)c1ccccc1 [Butyrophenone],CHI at pH 2.6,[1],87.3
same,CHI at pH 7.4,[1],87.5
same,CHI at pH 10.5,[1],87.3
"CCN(CC)CCCC(C)Nc1ccnc2cc(Cl)ccc12 (stereo not drawn) [CQ, Chloroquine]",% AGP bound,[2],88.8%
same,volume of distribution described in the literature,[3],over 100 L/kg
same,% LTB,[4],96.3%
same,Estimated % plasma protein binding (PPB),[5],94.8%
same,fraction unbound,[5],0.05
same,% AGP bound,AGP [6],48.4%
same,%BTB,[7],98.4%
same,Kp at 0.1 h,[7],3.4
same,phospholipidosis,[8],causes phospholipidosis
same,fraction unbound,[9],0.474
same,Vd,[10],6.9 L/kg
same,Vdu,[10],56.1 L/kg
same,fraction unbound,[11],0.178
same,% HSA bound,[11],87% and 87.6%
same,log k (HSA),[11],0.8
same,Measured log I (ChemSpider),[12],2.68-4.63
same,log k (IAM),[13],2.6
NC(=O)N1c2ccccc2C=Cc2ccccc21 [Carbamazepine],% AGP,AGP [6]; [21],65%
same,log k (AGP),AGP [14],0.3
same,% HSA,HSA [15],75.0%
same,log k (HSA),HSA [16],0.5
COc1cc2c(c(OC)c1OC)-c1ccc(OC)c(=O)cc1[C@@H](NC(C)=O)CC2 [Colchicine],CHI at pH 2.6,[1],43.9
same,CHI at pH 7.4,[1],45.0
same,CHI at pH 10.5,[1],43.9
O=C(O)Cc1ccccc1Nc1c(Cl)cccc1Cl [Diclofenac],log k (AGP),AGP [14],0.2
"CCN(CCO)CCCC(C)Nc1ccnc2cc(Cl)ccc12 (stereo not drawn) [HCQ, hydroxy-chloroquine]",% AGP bound,[2],89.0%
same,log k (AGP),"[2]; standard 6 min IPA gradient, racemate",0.9
same,volume of distribution described in the literature,[3],over 100 L/kg
same,Vd,[3]; healthy volunteers,above 4000 L/kg
same,% LTB,[4],93.9%
same,Phospholipidotic potential (CAD-likeness),[17],73.6
same,Estimated % plasma protein binding (PPB),[5],93.4%
same,fraction unbound,[5],0.07
same,% AGP bound,AGP [6]; equilibrium dialysis method,34%
same,%BTB,[7],97.6%
same,est log k BB,[7],0.8
same,Kp at 0.1 h,[7],2.8
same,% HSA bound,HSA [15]; equilibrium dialysis method,40%
same,chromatographic logD,"[18]; Gemini NX C-18(2) HPLC column, pH 7.4, C-18 gradient HPLC, racemate not resolved, read-out: CHI log D (pH 7.4)",0.66
same,chromatographic logP,"[18]; from pH 10.5 mobile phase, read-out: CHI log P",2.13
same,fraction unbound,[9],0.693
same,Vd,[10]; human,5.8 L/kg
same,Vd,[10],5.1 L/kg
same,Vdu,[10],38.8 L/kg
same,fraction unbound,[11],0.181
same,% HSA bound,[11],84.9%
same,log k (HSA),[11],0.7
same,Kpcell,[19],7.3
same,log k (IAM),[13],2.5
c1ccc2[nH]ccc2c1 [Indole],CHI at pH 2.6,[1],72.1
same,CHI at pH 7.4,[1],71.5
same,CHI at pH 10.5,[1],72.1
COc1ccc2c(c1)c(CC(=O)O)c(C)n2C(=O)c1ccc(Cl)cc1 [Indomethacin],% AGP,AGP [6]; [21],56%
same,log k (AGP),AGP [14],0.1
same,log k (HSA),HSA [16],1.8
COC(=O)C1=C(C)NC(C)=C(C(=O)OCCN(C)Cc2ccccc2)C1c1cccc([N+](=O)[O-])c1 (stereo not drawn) [Nicardipine],"calculated % binding, AGP 5 % IPA",[2],>8 min (>98 %)
same,"calculated % binding, AGP 8 % IPA",[2],5.63 (98 %)
same,"calculated % binding, AGP 15 % IPA",[2],5.0 (96 %)
same,% AGP,AGP [6]; [21],87%
same,log k (AGP),AGP [14],0.8
same,% PPB (binds to plasma proteins),[20],nicardipine (96 % PPB)
same,log k (HSA),HSA [16],1.2
same,"calculated % binding, HSA 5 % IPA",[11]; 1.2 mL/min,6 (96 %)
same,"calculated % binding, HSA 15 % IPA",[11]; 1.2 mL/min,1.05 (95 %)
CNC(=C[N+](=O)[O-])NCCSCc1csc(CN(C)C)n1 [Nizatidine],% AGP,AGP [6]; [21],37.1%
same,log k (AGP),AGP [14],-0.2
same,% HSA,HSA [15],20.4%
same,log k (HSA),HSA [16],-0.6
CC(=O)Nc1ccc(O)cc1 [Paracetamol],% AGP,AGP [6]; [21],3.2%
same,log k (AGP),AGP [14],-1.5
same,% HSA,HSA [15],14.0%
same,log k (HSA),HSA [16],-0.8
c1ccc(-c2nn[nH]n2)cc1 [Phenyl tetrazole],CHI at pH 2.6,[1],42.2
same,CHI at pH 7.4,[1],23.6
same,CHI at pH 10.5,[1],16.0
Cn1c(=O)c2nc(-c3ccccc3)[nH]c2n(C)c1=O [Phenyl theophylline],CHI at pH 2.6,[1],51.7
same,CHI at pH 7.4,[1],51.2
same,CHI at pH 10.5,[1],51.3
CCC(=O)c1ccccc1 [Propiophenone],CHI at pH 2.6,[1],77.4
same,CHI at pH 7.4,[1],77.4
same,CHI at pH 10.5,[1],77.4
CC(C)NCC(O)COc1cccc2ccccc12 (stereo not drawn) [Propranolol],"calculated % binding, AGP 5 % IPA",[2],2.78 (85 %)
same,"calculated % binding, AGP 8 % IPA",[2],1.73 (68 %)
same,"calculated % binding, AGP 15 % IPA",[2],1.58 (67 %)
same,% AGP,AGP [6]; [21],86%
same,log k (AGP),AGP [14],0.8
same,% HSA,HSA [15],66.6%
same,% PPB (binds to plasma proteins),[20],propranolol (66 % PPB)
same,log k (HSA),HSA [16],0.3
same,"calculated % binding, HSA 5 % IPA",[11]; 1.2 mL/min,0.76 (54 %)
same,"calculated % binding, HSA 8 % IPA","[11]; isocratic 8 % IPA, 1.2 mL/min",0.73 (57.6 %)
same,"calculated % binding, HSA 15 % IPA",[11]; 1.2 mL/min,0.58 (66 %)
Cn1c(=O)c2[nH]cnc2n(C)c1=O [Theophylline],CHI at pH 2.6,[1],17.9
same,CHI at pH 7.4,[1],18.4
same,CHI at pH 10.5,[1],5.0
COc1cc(Cc2cnc(N)nc2N)cc(OC)c1OC [Trimethoprim],% AGP,AGP [6]; [21],46.2%
same,log k (AGP),AGP [14],-0.1
same,% HSA,HSA [15],37.6%
same,log k (HSA),HSA [16],-0.2
CCCCC(=O)c1ccccc1 [Valerophenone],CHI at pH 2.6,[1],96.4
same,CHI at pH 7.4,[1],96.20
same,CHI at pH 10.5,[1],96.36
CC(=O)CC(c1ccccc1)c1c(O)c2ccccc2oc1=O (stereo not drawn) [Warfarin],% AGP,AGP [6],83.2%
same,log k (AGP),AGP [14],0.7
same,log k (HSA),HSA [16],1.5
